Source: US12024546B2, “Peptides and anti-cancer compositions including thereof” (GWANGJU INSTITUTE OF SCIENCE AND TECHNOLOGY, priority 2022, dated 2024)
One block for each molecule: values may come before it.

Columns and labels:
FAK = molecular target: T1, FAK (Homo sapiens, UniProt Q05397); assay: Immunoblot of FAK activation status (p-FAK); assay type: cell-based
T1 construct: endogenous in cells; host or cells: Human CRC cells
Method: (§1) FIGS. 16A-16G illustrate functional involvement of fibronectin/integrin/FAK axis in dysadherin-mediated protumor activity. (FIG. 16A) The number of viable cells was measured with an automated cell counter (Countess II, ThermoFisher Scientific, Waltham, MA, USA) at the indicated time points (n=3/group) in HCT116 cells overexpressing wildtype (full length) or mutant dysadherin. EV-transfected cells were used as controls. […] (FIG. 16B) To determine the effect of fibronectin and FAK signaling on cancer cell growth, dysadherin-OE or control cells were transfected with control siRNA (siCTRL) or siRNAs targeting fibronectin (siFN1). At 24 h after transfection, cells were detached, reseeded, and incubated for 12 h for cell attachment. […] The relative cell numbers were determined by MTT assays (n=3/group). […] The black dotted line indicates initial wound area, and the blue line indicates the cell boundaries determined after a 48-h incubation in serum-free media. […] After a 24-h incubation, the cells that invaded through to the bottom of the membrane were fixed, stained with crystal violet, and counted under a phase-contrast microscope (n=3/group). […]
Tissues or cells were homogenized in RIPA buffer for 20 min on ice. Protein concentrations were determined based on bicinchoninic acid (BCA) assay using the BCA Protein Assay kit (Thermo Fisher Scientific, Waltham, MA, USA). […]

[1] = system: dysadherin-OE HCT116 cells; assay: Cell growth by MTT assay, dysadherin-OE HCT116 cells; assay type: cell-based, human; conditions: VS-4718 3 μM, 36 h
Method: (§2) FIGS. 16A-16G illustrate functional involvement of fibronectin/integrin/FAK axis in dysadherin-mediated protumor activity. (FIG. 16A) The number of viable cells was measured with an automated cell counter (Countess II, ThermoFisher Scientific, Waltham, MA, USA) at the indicated time points (n=3/group) in HCT116 cells overexpressing wildtype (full length) or mutant dysadherin. EV-transfected cells were used as controls. […] (FIG. 16B) To determine the effect of fibronectin and FAK signaling on cancer cell growth, dysadherin-OE or control cells were transfected with control siRNA (siCTRL) or siRNAs targeting fibronectin (siFN1). At 24 h after transfection, cells were detached, reseeded, and incubated for 12 h for cell attachment. Then cells were incubated for 36 h with or without FAK inhibitor treatment (VS-4718, 3 μM). The relative cell numbers were determined by MTT assays (n=3/group). […] Cells were seeded on fibronectin-coated culture plates with or without VS-4718, at 1 or 3 μM. […] The black dotted line indicates initial wound area, and the blue line indicates the cell boundaries determined after a 48-h incubation in serum-free media. […] After a 24-h incubation, the cells that invaded through to the bottom of the membrane were fixed, stained with crystal violet, and counted under a phase-contrast microscope (n=3/group). […]

wild-type HCT116 cells = assay: Cell growth by MTT assay, wild-type HCT116 cells; assay type: cell-based, human; conditions: VS-4718 3 μM, 36 h
Method: as §2

HCT116 cells [2] = assay: Clonogenic assay (survival potential), HCT116 cells overexpressing dysadherin; assay type: cell-based, human; conditions: VS-4718 3 μmol/L for 24 h, then clonogenic assay
Method: as §1
A clonogenic assay was performed as cells were seeded in 12-well plates (200 cells/well) and cultured for 14 days. The numbers of colonies greater than 50 μm in size were counted after staining with crystal violet (n=3/group).

HCT116 cells [3] = assay: Wound healing assay (migration), HCT116 cells overexpressing dysadherin; assay type: cell-based, human; conditions: VS-4718 1 μM, 48-h incubation in serum-free media
Method: as §1
Cells were seeded in culture inserts (Ibidi, GmbH, Martinsried, Germany). […] The wound area at time zero or the endpoint was measured using Image-Pro Premier 9.2. The area of wound closure was calculated as a percentage of the initial wound area. […]

HCT116 cells [4] = assay: Boyden chamber assay (invasion), HCT116 cells overexpressing dysadherin; assay type: cell-based, human; conditions: FAK inhibitor 3 μmol/L, 24-h incubation, serum-free media
Method: as §1, with “(siFN1).” for “(siFN1). At 24 h after transfection, cells were detached, reseeded, and incubated for 12 h for cell attachment.”
The Transwell system (8 μm pore size, Corning) was employed for migration and invasion assays. […] After incubation for 24 h at 37° C., the cells that migrated or invaded the Matrigel through to the bottom of the insert membrane were fixed, stained with crystal violet, and counted under a phase-contrast microscope (Carl Zeiss, biological triplicates).

fibronectin [5] = assay: Pull-down assay of His-tagged synthesized peptides with purified fibronectin; assay type: binding; conditions: His-tagged peptide 20 μg, purified fibronectin 0.5 μg, Ni-NTA agarose beads, Coomassie staining
Source text: FIG. 13B illustrates pull-down assay using purified fibronectin and purified His-tagged synthesized peptides to determine the specific sequence with fibronectin-binding activity.
The coding sequences of wild-type or mutant forms of dysadherin were synthesized and cloned into pET151/DTOPO vector by Thermo Fisher Scientific. OE of His-tagged dysadherin was achieved using E. coli grown in Luria-Bertani (LB) broth medium, supplemented with ampicillin. Isopropyl β-D-1-thiogalactopyranoside (IPTG, 0.5 mM) was added into the LB broth medium to induce the expression of the protein of interest, and the mixture was incubated for 5 h at 37° C. The cells were then lysed using RIPA buffer and purified using a Ni-NTA column (R90101, Thermo Fisher Scientific). The concentrated purified protein was measured using the BCA Protein Assay kit (Thermo Fisher Scientific). […] Presence of His-tagged dysadherin and fibronectin proteins were determined by immunoblot analysis using anti-His rabbit monoclonal antibody (#12698, Cell Signaling Technology) and anti-fibronectin rabbit polyclonal antibody (ab2413, Abcam, Cambridge, MA, USA). […] The purity of each peptide was determined to be over 95% by LC-MS. […] The presence of His-tagged dysadherin, dysadherin peptides, and fibronectin was determined by staining with Coomassie Brilliant Blue.

SW480 cells = assay: Cell viability by MTT assay, SW480 cells; assay type: cell-based, human; conditions: MTT assay at 48 hours after peptide treatment
Method: (§3) FIGS. 13C-13D illustrate cell viability were measured by an MTT assay at 48 hours after the treatment of annotated peptide in SW480 cells with and without KO of dysadherin.
(§4) Cells were seeded in 6-well or 96-well plates and incubated for various time points. The numbers of viable cells were measured with an automated cell counter (Countess II, ThermoFisher Scientific, Waltham, MA, USA) or measured by staining with thiazolyl blue tetrazolium bromide (MTT, Sigma-Aldrich, St. Louis, MO, USA), and the absorbance was measured using a microplate spectrophotometer (Bio-Tek Instruments Inc., Winooski, VT, USA).

[6] = system: dysadherin KO SW480 cells; assay: Cell viability by MTT assay, dysadherin KO SW480 cells; assay type: cell-based, human; conditions: MTT assay at 48 hours after peptide treatment
Method: as §3
A dysadherin-KO (FXYD5^−/−) SW480 cell line was generated by Transomic Technologies (Huntsville, AL, USA). Specific gRNA targeting different regions of the human FXYD5 gene was designed and cloned into the pCLIPAll (EFS-Puro) expression vector. SW480 cells were infected with lentiviral particles and selected with puromycin for 1 week. Dilution cloning was performed to obtain different monoclonal cell populations. […] For establishment of the dysadherin-OE cell line, HCT116 cells were transfected with dysadherin expression vector (pcDNA-L3HSV) and selected with G418 for 1 week. Dilution cloning was performed and OE of the dysadherin gene was confirmed by RT-qPCR and immunoblot analysis. […]
as §4

fibronectin [7] = molecular target: T2, fibronectin (Homo sapiens, UniProt P02751); assay: Pull-down assay of purified His-tagged dysadherin proteins with purified fibronectin protein; assay type: binding; conditions: purified His-tagged dysadherin proteins 1 μg, purified fibronectin 0.5 μg, anti-His antibody, immunoblot
T2 construct: purchased Sigma Aldrich
T2 sequence (P02751 32-2477, species assumed): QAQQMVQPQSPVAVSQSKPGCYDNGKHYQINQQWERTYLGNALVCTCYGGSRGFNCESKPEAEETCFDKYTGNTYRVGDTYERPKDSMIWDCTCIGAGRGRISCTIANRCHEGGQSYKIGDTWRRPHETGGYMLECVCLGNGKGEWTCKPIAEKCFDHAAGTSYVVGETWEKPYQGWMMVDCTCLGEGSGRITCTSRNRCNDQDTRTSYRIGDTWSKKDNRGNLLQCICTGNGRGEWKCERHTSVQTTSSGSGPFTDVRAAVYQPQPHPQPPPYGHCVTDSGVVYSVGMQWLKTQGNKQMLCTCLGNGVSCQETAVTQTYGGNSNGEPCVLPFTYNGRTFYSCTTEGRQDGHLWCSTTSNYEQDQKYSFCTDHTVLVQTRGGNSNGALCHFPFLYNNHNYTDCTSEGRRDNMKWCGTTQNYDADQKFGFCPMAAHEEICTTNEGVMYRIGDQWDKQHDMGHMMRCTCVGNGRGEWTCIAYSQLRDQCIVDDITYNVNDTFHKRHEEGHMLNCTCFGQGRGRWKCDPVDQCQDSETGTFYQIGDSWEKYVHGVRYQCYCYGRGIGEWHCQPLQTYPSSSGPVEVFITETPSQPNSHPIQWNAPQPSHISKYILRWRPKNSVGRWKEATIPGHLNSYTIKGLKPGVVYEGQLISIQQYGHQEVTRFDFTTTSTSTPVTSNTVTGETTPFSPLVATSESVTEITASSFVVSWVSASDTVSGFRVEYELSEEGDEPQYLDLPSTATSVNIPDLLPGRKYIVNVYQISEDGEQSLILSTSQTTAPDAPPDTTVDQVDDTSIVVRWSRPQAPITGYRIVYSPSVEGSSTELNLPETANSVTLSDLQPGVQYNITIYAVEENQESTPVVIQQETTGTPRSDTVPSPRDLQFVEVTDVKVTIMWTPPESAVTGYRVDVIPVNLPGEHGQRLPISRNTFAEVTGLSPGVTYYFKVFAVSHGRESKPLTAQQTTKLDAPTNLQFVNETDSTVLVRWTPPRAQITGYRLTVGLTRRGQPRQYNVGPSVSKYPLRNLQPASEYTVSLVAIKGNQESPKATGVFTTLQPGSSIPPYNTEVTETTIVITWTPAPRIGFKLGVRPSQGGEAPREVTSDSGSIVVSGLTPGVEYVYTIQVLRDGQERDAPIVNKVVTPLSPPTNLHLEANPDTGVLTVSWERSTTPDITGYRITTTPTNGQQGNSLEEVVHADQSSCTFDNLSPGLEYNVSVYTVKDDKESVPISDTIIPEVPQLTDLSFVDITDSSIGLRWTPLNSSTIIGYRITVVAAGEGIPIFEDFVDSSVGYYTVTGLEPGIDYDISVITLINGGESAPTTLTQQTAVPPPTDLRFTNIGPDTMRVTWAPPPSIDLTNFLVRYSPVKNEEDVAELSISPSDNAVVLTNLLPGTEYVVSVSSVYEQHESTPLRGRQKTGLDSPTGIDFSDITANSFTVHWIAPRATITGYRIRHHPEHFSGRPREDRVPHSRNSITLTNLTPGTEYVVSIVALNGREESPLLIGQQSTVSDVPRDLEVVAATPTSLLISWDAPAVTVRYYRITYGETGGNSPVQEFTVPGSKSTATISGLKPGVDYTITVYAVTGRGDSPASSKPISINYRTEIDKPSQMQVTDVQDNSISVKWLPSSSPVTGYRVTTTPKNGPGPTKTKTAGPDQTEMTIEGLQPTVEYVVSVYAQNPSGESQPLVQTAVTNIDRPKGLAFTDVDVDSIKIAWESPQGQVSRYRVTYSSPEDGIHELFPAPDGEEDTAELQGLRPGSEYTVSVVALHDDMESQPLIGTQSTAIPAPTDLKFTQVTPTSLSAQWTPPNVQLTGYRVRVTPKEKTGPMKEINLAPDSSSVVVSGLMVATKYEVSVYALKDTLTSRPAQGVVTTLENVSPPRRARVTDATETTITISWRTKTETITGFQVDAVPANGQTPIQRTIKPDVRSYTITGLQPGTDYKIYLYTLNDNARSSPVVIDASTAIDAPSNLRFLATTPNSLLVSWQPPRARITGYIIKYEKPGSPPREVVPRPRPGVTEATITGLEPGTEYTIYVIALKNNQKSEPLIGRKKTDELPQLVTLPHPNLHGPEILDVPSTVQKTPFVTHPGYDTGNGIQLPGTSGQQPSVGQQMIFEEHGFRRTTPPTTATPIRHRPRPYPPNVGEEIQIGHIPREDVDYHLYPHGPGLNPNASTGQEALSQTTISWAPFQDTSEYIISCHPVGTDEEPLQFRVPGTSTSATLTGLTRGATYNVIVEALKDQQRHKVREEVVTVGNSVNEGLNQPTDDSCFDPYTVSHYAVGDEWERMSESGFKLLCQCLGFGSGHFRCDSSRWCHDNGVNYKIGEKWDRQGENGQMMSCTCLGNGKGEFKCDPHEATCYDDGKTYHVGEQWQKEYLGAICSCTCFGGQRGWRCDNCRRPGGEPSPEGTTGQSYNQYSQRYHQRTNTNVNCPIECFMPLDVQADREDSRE
Source text: FIGS. […] illustrate the extracellular domain of dysadherin directly binds fibronectin. (FIG. 12A) Co-IP with anti-dysadherin antibody (M53) and subsequent immunoblot analyses validate the binding of dysadherin to endogenous fibronectin in CRC cells. (FIG. 12B) Co-IP with M53 and subsequent immunoblot analyses confirm that the quantity of dysadherin-bound fibronectin is decreased by dysadherin KO but increased by dysadherin OE. (FIG. 12C) Whole-protein lysates and membrane fractions were extracted from cells at the indicated time points. Culture media were collected and applied to dot blot assays to compare the quantities of secreted fibronectin. […]
The coding sequences of wild-type or mutant forms of dysadherin were synthesized and cloned into pET151/DTOPO vector by Thermo Fisher Scientific. […] The concentrated purified protein was measured using the BCA Protein Assay kit (Thermo Fisher Scientific). […] Presence of His-tagged dysadherin and fibronectin proteins were determined by immunoblot analysis using anti-His rabbit monoclonal antibody (#12698, Cell Signaling Technology) and anti-fibronectin rabbit polyclonal antibody (ab2413, Abcam, Cambridge, MA, USA). […] The purity of each peptide was determined to be over 95% by LC-MS. […] The presence of His-tagged dysadherin, dysadherin peptides, and fibronectin was determined by staining with Coomassie Brilliant Blue.

T1 sequence (Q05397 whole entry): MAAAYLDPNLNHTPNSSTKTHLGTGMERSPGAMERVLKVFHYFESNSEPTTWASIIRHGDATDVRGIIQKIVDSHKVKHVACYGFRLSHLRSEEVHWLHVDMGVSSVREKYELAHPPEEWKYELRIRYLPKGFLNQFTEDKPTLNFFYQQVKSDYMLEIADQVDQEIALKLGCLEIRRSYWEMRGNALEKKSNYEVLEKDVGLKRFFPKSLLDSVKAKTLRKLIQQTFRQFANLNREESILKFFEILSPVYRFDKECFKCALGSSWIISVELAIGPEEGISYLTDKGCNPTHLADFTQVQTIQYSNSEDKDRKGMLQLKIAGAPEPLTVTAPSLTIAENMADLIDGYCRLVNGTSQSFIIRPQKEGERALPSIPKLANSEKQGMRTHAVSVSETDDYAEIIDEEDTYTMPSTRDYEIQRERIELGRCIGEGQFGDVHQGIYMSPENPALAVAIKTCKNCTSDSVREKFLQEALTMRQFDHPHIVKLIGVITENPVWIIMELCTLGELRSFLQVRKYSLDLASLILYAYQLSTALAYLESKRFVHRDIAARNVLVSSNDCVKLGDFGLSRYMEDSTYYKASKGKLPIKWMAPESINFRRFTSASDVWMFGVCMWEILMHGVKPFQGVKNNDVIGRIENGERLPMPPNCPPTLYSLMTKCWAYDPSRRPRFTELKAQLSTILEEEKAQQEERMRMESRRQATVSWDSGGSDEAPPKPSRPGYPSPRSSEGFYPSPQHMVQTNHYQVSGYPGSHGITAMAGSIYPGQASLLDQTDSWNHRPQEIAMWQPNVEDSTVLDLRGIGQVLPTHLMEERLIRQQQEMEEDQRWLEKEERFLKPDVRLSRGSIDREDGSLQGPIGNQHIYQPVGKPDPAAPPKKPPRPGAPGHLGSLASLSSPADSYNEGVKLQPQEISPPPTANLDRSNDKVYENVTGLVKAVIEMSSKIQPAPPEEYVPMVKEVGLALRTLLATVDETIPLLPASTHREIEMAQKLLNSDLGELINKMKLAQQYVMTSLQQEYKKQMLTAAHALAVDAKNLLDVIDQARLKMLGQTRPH

- fibronectin-induced FAK activation (FAK; cells on fibronectin-coated plates, VS-4718 at 1 or 3 μM, 4 h): inhibitory effects
- basal p-FAK levels (FAK; treatment with VS-4718, FIG. 16C): diminished basal p-FAK levels
Molecule: CNC(=O)c1ccccc1Nc1cc(Nc2ccc(N3CCOCC3)cc2OC)ncc1C(F)(F)F [VS-4718]
- dysadherin-induced CRC growth [1]: diminished dysadherin-induced CRC growth
- growth of wild-type HCT116 cells (wild-type HCT116 cells): attenuated the growth of wild-type HCT116 cells
- dysadherin-induced increase in CRC survival (HCT116 cells [2]): attenuated
- dysadherin-induced increase in CRC migration (HCT116 cells [3]): attenuated
- dysadherin-induced increase in CRC invasion (HCT116 cells [4]): attenuated

- fibronectin-binding activity (fibronectin [5]): displayed fibronectin-binding activity
Molecule: KAAHPTDDTTTLSERPSPST (listed as Homo sapiens) [N #4]
- cytotoxicity against SW480 cells (SW480 cells): selective cytotoxicity
- effect against dysadherin KO SW480 cells [6]: limited effect

- fibronectin-binding activity (fibronectin [5]): displayed fibronectin-binding activity
Molecule: PADETPQPQTQTQQLEGTDGP (listed as Homo sapiens) [N #3]
- cytotoxicity against SW480 cells (SW480 cells): selective cytotoxicity
- effect against dysadherin KO SW480 cells [6]: limited effect

- binding to fibronectin (fibronectin [7]): direct binding
B1: dysadherin: purified recombinant His-tagged dysadherin protein, full-length (wild-type), from E. coli (protein)
chain: QTLKDTTSSSSADSTIMDIQVPTRAPDAVYTELQPTSPTPTWPADETPQPQTQTQQLEGTDGPLVTDPETHKSTKAAHPTDDTTTLSERPSPSTDVQTDPQTLKPSGFHEDDPFFYDEHTLRKRGLLVAAVLFITGIIILTSGKCRQLSRLCRNRCR
